According to PMC3082038 (Cancer Chemotherapy and Pharmacology, 2010):

Experiment: Plasma pharmacokinetics of TSU-68 in phase I patients
Assay type: in vivo, human
Conditions: for AUC(0-t) / AUC / Cmax / half-life / Tmax: human, plasma, oral

Q: What does the source list for Cc1[nH]c(/C=C2\C(=O)Nc3ccccc32)c(C)c1CCC(=O)O [TSU-68, (Z)-5-[(1,2-dihydro-2-oxo-3H-indol-3-ylidene)methyl]-2,4-dimethyl-1H-pyrrole-3-propanoic acid]?
A: AUC0–t (b.i.d. after meal, 1st dose, 400 mg/m^2, n=6, mean ± SD): 76.44 ± 23.07 h; AUC0–t (b.i.d. after meal, 3rd dose, 200 mg/m^2, n=3, mean ± SD): 33.28 ± 4.329 h; AUC0–t (b.i.d. after meal, 3rd dose, 500 mg/m^2, n=3, mean ± SD): 45.74 ± 14.59 h; C max and AUC after repeated administration versus 1st administration on day 1 (b.i.d. regimen, any dose level, days 2 and 28): approximately twofold lower; AUC(0-t) (200 mg/m2, AUC0–t, b.i.d. after meal, 1st dose, 200 mg/m^2, n=3, mean ± SD): 55200 ± 5360 ng·h/mL; AUC(0-t) (200 mg/m2, AUC0–t, b.i.d. after meal, 56th dose, 200 mg/m^2, n=3, mean ± SD): 32200 ± 1540 ng·h/mL; AUC(0-t) (200 mg/m2, AUC0–t, t.i.d. after meal, 1st dose, 200 mg/m^2, n=6, mean ± SD): 37000 ± 18200 ng·h/mL; AUC(0-t) (200 mg/m2, AUC0–t, t.i.d. after meal, 2nd dose, 200 mg/m^2, n=6, mean ± SD): 31500 ± 12500 ng·h/mL; AUC (200 mg/m2, AUC Day 28, Pt 1, Cervical ca., b.i.d. 200 mg/m^2 (800 mg/day)): 32800 ng·h/mL; AUC (200 mg/m2, AUC Day 28, Pt 2, NSCLC, b.i.d. 200 mg/m^2 (800 mg/day)): 33400 ng·h/mL; AUC (200 mg/m2, AUC Day 28, Pt 13, Colon ca., t.i.d. 200 mg/m^2 (1200 mg/day)): 25300 ng·h/mL; AUC (200 mg/m2, AUC Day 28, Pt 14, Soft tissue sa., t.i.d. 200 mg/m^2 (600 mg/day)): 19000 ng·h/mL; Cmax (200 mg/m2, C max, b.i.d. after meal, 1st dose, 200 mg/m^2, n=3, mean ± SD): 11200 ± 1150 ng/mL; Cmax (200 mg/m2, C max, b.i.d. after meal, 3rd dose, 200 mg/m^2, n=3, mean ± SD): 6000 ± 671 ng/mL; Cmax (200 mg/m2, C max, b.i.d. after meal, 56th dose, 200 mg/m^2, n=3, mean ± SD): 4790 ± 526 ng/mL; Cmax (200 mg/m2, C max, t.i.d. after meal, 1st dose, 200 mg/m^2, n=6, mean ± SD): 11000 ± 5530 ng/mL; Cmax (200 mg/m2, C max, t.i.d. after meal, 2nd dose, 200 mg/m^2, n=6, mean ± SD): 7010 ± 2410 ng/mL; Cmax (200 mg/m2, C max, t.i.d. after meal, 84th dose, 200 mg/m^2, n=6, mean ± SD): 3850 ± 2980 ng/mL; half-life (200 mg/m2, T 1/2, b.i.d. after meal, 1st dose, 200 mg/m^2, n=3, mean ± SD): 2.37 ± 0.86 h; half-life (200 mg/m2, T 1/2, b.i.d. after meal, 3rd dose, 200 mg/m^2, n=3, mean ± SD): 2.71 ± 0.471 h; half-life (200 mg/m2, T 1/2, b.i.d. after meal, 56th dose, 200 mg/m^2, N = 2, mean): 3.47 h; half-life (200 mg/m2, T 1/2, t.i.d. after meal, 1st dose, 200 mg/m^2, N = 3, mean ± SD): 2.04 ± 0.461 h; half-life (200 mg/m2, T 1/2, t.i.d. after meal, 2nd dose, 200 mg/m^2, N = 2, mean): 2.99 h; Tmax (200 mg/m2, T max, b.i.d. after meal, 1st dose, 200 mg/m^2, n=3, mean ± SD): 3 ± 1 h; Tmax (200 mg/m2, T max, b.i.d. after meal, 3rd dose, 200 mg/m^2, n=3, mean ± SD): 3.5 ± 2.29 h; Tmax (200 mg/m2, T max, b.i.d. after meal, 56th dose, 200 mg/m^2, n=3, mean ± SD): 2.67 ± 1.16 h; Tmax (200 mg/m2, T max, t.i.d. after meal, 1st dose, 200 mg/m^2, n=6, mean ± SD): 3.08 ± 1.43 h; Tmax (200 mg/m2, T max, t.i.d. after meal, 2nd dose, 200 mg/m^2, n=6, mean ± SD): 3.67 ± 1.37 h; Tmax (200 mg/m2, T max, t.i.d. after meal, 84th dose, 200 mg/m^2, n=6, mean ± SD): 2 ± 1.05 h; AUC (200 mg/m^2 t.i.d., AUC Day 28, Pt 18, Colon ca., t.i.d. 200 mg/m^2 (1,200 mg/day)): 12500 ng·h/mL; AUC(0-t) (400 mg/m2, AUC0–t, b.i.d. after meal, 3rd dose, 400 mg/m^2, n=6, mean ± SD): 40400 ± 10600 ng·h/mL; AUC(0-t) (400 mg/m2, AUC0–t, b.i.d. after meal, 56th dose, 400 mg/m^2, N = 4, mean ± SD): 36900 ± 20300 ng·h/mL; AUC(0-t) (400 mg/m2, AUC0–t, t.i.d. after meal, 1st dose, 400 mg/m^2, n=6, mean ± SD): 41600 ± 21600 ng·h/mL; AUC(0-t) (400 mg/m2, AUC0–t, t.i.d. after meal, 2nd dose, 400 mg/m^2, n=6, mean ± SD): 42000 ± 18900 ng·h/mL; AUC(0-t) (400 mg/m2, AUC0–t, t.i.d. after meal, 84th dose, 400 mg/m^2, n=6, mean ± SD): 31600 ± 16100 ng·h/mL; Cmax (400 mg/m2, C max, b.i.d. after meal, 1st dose, 400 mg/m^2, n=6, mean ± SD): 17100 ± 6590 ng/mL; Cmax (400 mg/m2, C max, b.i.d. after meal, 3rd dose, 400 mg/m^2, n=6, mean ± SD): 8290 ± 2720 ng/mL; Cmax (400 mg/m2, C max, b.i.d. after meal, 56th dose, 400 mg/m^2, N = 4, mean ± SD): 8410 ± 5870 ng/mL; Cmax (400 mg/m2, C max, t.i.d. after meal, 1st dose, 400 mg/m^2, n=6, mean ± SD): 12400 ± 5760 ng/mL; Cmax (400 mg/m2, C max, t.i.d. after meal, 2nd dose, 400 mg/m^2, n=6, mean ± SD): 9340 ± 4510 ng/mL; Cmax (400 mg/m2, C max, t.i.d. after meal, 84th dose, 400 mg/m^2, n=6, mean ± SD): 4780 ± 1950 ng/mL; half-life (400 mg/m2, T 1/2, b.i.d. after meal, 1st dose, 400 mg/m^2, n=6, mean ± SD): 2.94 ± 0.692 h; half-life (400 mg/m2, T 1/2, b.i.d. after meal, 3rd dose, 400 mg/m^2, n=6, mean ± SD): 3.45 ± 1.37 h; half-life (400 mg/m2, T 1/2, b.i.d. after meal, 56th dose, 400 mg/m^2 (6), mean ± SD): 2.6 ± 0.527 h; half-life (400 mg/m2, T 1/2, t.i.d. after meal, 1st dose, 400 mg/m^2, N = 1): 2.61 h; half-life (400 mg/m2, T 1/2, t.i.d. after meal, 2nd dose, 400 mg/m^2, N = 3, mean ± SD): 2.41 ± 1.14 h; half-life (400 mg/m2, T 1/2, t.i.d. after meal, 84th dose, 400 mg/m^2, N = 2, mean): 2.23 h; Tmax (400 mg/m2, T max, b.i.d. after meal, 1st dose, 400 mg/m^2, n=6, mean ± SD): 2.67 ± 0.817 h; Tmax (400 mg/m2, T max, b.i.d. after meal, 3rd dose, 400 mg/m^2, n=6, mean ± SD): 2.67 ± 0.817 h; Tmax (400 mg/m2, T max, b.i.d. after meal, 56th dose, 400 mg/m^2, N = 4, mean ± SD): 2.38 ± 0.75 h; Tmax (400 mg/m2, T max, t.i.d. after meal, 1st dose, 400 mg/m^2, n=6, mean ± SD): 3.42 ± 1.2 h; Tmax (400 mg/m2, T max, t.i.d. after meal, 2nd dose, 400 mg/m^2, n=6, mean ± SD): 3 ± 1.79 h; Tmax (400 mg/m2, T max, t.i.d. after meal, 84th dose, 400 mg/m^2, n=6, mean ± SD): 2.92 ± 1.2 h; AUC (400 mg/m^2 t.i.d., AUC Day 28, Pt 20, Colon ca., t.i.d. 400 mg/m^2 (1,800 mg/day)): 46800 ng·h/mL
